Test results from ChEMBL document CHEMBL1201862, “PubChem BioAssay data set” (2004).
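Each compound was tested at five concentrations against cells in 96-well plates for 48 hours. GI50 = concentration required for 50% inhibition of growth.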 Calls of active or inactive are those of the source. No stated cut-off is given here; in the data, active = GI50 up to about 1.1 µM and inactive = higher.

Legend:
Assay in all cases: growth of human tumour cells (NCI), 48 h
KM-20L2 = test system: KM-20L2
HOP-18 = test system: HOP-18
LXFL 529 = test system: LXFL 529
M19-MEL = test system: M19-MEL
SNB-78 = test system: SNB-78
RXF 631 = test system: RXF 631
XF498 = test system: XF498
DMS-114 = test system: DMS-114
DMS-273 = test system: DMS-273

Measured: GI50

Cn1nc(-c2ccccc2)c2c(/C=C/c3ccccc3)onc2c1=O
inactive: KM-20L2 > 100 µM | HOP-18 25.5 µM | LXFL 529 > 100 µM | M19-MEL > 100 µM | SNB-78 38.7 µM | RXF 631 73.3 µM | XF498 26.8 µM | DMS-114 98.4 µM

N#CC12CCC(O)C(CC1)C2=O (centres undefined)
inactive: KM-20L2 > 100 µM | HOP-18 > 100 µM | LXFL 529 > 10 µM | M19-MEL > 100 µM | SNB-78 > 100 µM | RXF 631 > 100 µM | DMS-273 96.8 µM | XF498 > 100 µM | DMS-114 19.4 µM

COc1cc(C)c(C)c(OC(=O)c2c(C)c(C)c(OC)c(C)c2OC)c1C
inactive: KM-20L2 4.17 µM | HOP-18 10.4 µM | LXFL 529 8.87 µM | M19-MEL 7.6 µM | SNB-78 21.1 µM | RXF 631 10.3 µM | DMS-273 3.94 µM | XF498 12.2 µM | DMS-114 3.29 µM

NC1CC(n2ccc(=O)[nH]c2=O)OC1C(O)CO (centres undefined)
inactive: KM-20L2 > 100 µM | HOP-18 > 100 µM | LXFL 529 > 100 µM | M19-MEL > 100 µM | RXF 631 > 100 µM | DMS-273 > 100 µM | XF498 > 100 µM | DMS-114 > 100 µM
